The values below come from patent US20230248000A1, “ANTIMICROBIAL COMPOUNDS AND METHODS OF USE” (Aequor, Inc., priority 2016, published 2023).

Several values for one entry are separate records, joined by “and”; a condition that tells them apart may be missing. Identical values can stand only once.

Holding throughout (format): cell-based, Staphylococcus aureus
Assay [1] deals with S. aureus ATCC 25923. Nature of the assay: Minimum Inhibitory Concentration (MIC) on planktonic bacteria, CLSI M07-A9 modified for 96 well plates.
In assay [2] the test system is S. aureus ATCC 25923. Nature of the assay: Biofilm prevention (inhibition), 96-well microplate assay.
Assay [3] deals with S. aureus ATCC 25923. Nature of the assay: Biofilm removal, MBEC Assay (ASTM E2799-12).

Consider `CCCCOP(=O)(O)OCCCC` [Dibutyl phosphate], for which the MIC in assay [1] is 0.24% and 0.01%. The “Biofilm Prevention” value in assay [2] is on record as 99.99%. Besides, in assay [3], the “Biofilm Removal” value is on record as 99.99% and the “MBEC Qualitative” value is given as 0.24%.

In the case of `CCCCOP(=O)(OC)OCCCC` [Dibutyl methyl phosphate], the MIC in assay [1] is recorded as 0.24%. Further, in assay [2], the “Biofilm Prevention” value came out at 99.99%. In assay [3], the “Biofilm Removal” value stood at 99.99% and the “MBEC Qualitative” value was more than 2.3%.
